According to patent publication US11040981B2, “Pyrrolotriazine compounds and methods of inhibiting TAM kinases” (Syros Pharmaceuticals, Inc., priority 2017, dated 2021):

Tests used:
[1] = target: T1, TYRO3 (Homo sapiens, UniProt Q06418); experiment: TR-FRET kinase activity assay, TYRO3; type: biochemical; settings: ATP at Km, 60 minutes
T1 sequence (Q06418 41-890): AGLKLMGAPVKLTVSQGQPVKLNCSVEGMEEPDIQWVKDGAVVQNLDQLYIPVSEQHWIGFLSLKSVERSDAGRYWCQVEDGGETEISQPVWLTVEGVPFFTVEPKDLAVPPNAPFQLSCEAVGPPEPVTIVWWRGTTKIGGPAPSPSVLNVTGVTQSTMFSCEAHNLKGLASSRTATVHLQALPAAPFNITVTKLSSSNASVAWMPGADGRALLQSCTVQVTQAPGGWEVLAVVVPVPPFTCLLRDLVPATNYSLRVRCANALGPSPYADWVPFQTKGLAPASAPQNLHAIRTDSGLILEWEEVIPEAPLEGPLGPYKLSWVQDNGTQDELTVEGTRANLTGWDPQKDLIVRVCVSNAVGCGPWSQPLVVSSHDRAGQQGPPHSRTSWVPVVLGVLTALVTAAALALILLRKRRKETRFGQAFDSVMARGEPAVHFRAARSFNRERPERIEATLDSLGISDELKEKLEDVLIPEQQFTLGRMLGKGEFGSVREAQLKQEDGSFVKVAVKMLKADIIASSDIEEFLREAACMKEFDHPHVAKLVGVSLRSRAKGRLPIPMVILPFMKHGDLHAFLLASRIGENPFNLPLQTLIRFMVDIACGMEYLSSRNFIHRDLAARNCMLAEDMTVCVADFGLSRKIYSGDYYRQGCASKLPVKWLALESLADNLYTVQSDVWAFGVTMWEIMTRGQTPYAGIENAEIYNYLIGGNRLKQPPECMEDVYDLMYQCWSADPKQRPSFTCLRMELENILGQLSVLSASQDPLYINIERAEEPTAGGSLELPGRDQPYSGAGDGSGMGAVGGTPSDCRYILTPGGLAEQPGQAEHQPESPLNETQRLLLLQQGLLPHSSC
Experimental: (§1) IC50 values for compound inhibition of AXL, FLT3, MERTK and TYRO3 activity were determined by using a TR-FRET activity assay. A polypeptide substrate with a fluorescent label is phosphorylated on a tyrosine by each enzyme, where the now phosphorylated product is bound by a Europium-labeled antibody specific to that phosphorylation site. The proximity between the antibody and the substrate gives a signal known as TR-FRET. As the enzyme is inhibited by compound, less phosphorylated peptide product is made causing a decrease in overall signal.
(§2) Activity assays were performed in a 384-well, small volume, black microplates in an active enzyme volume of 10 μL and final developed volume of 20 μL. Final assay conditions are 50 mM HEPES pH 7.5, 10 mM MgCl2, 1 mM EGTA, 0.01% Brij 35 and 1 mM DTT all at RT. Enzyme, substrate labeled peptide and compound are mixed, and then the reaction is initiated with the addition of ATP at Km concentration for each enzyme. The reaction is allowed to run 60 minutes and then quenched with a 12.5 mM EDTA (ethylenediamine tetraacetic acid) solution. The plate is then developed with the addition of Europium labeled antibody for a final volume of 20 μL and is then incubated for 30 minutes in darkness. Plates are read in a Pherastar plate reader. Data is analyzed in GraphPad PRISM.
(§3) The results of these assays are shown in Table 1, below, wherein “No.” designates compound number (FIG. 1); “A” represents a value of ≤100 nM; “B” a value of >100 nM and ≤1 μM; “C” a value of >1 μM and ≤10 μM; “D” a value of >10 μM; “ND” is not determined. The ratio of Mer to FLT3 is calculated as follows: FLT3 IC50/Mer IC50. “+” represents a ratio of >2.0 and <10; “++” represents a ratio of between 10 and 100; and “+++” represents a ratio of >100.

[2] = target: T2, MERTK (Homo sapiens, UniProt Q12866); experiment: TR-FRET kinase activity assay, MERTK; type: biochemical; settings: for IC50: TR-FRET activity assay, ATP at Km, 60 minutes, read-out: Mer IC50; for FLT3/Mer ratio (FLT3 IC50/Mer IC50): ratio of Mer to FLT3: FLT3 IC50/Mer IC50
T2 sequence (Q12866 21-999): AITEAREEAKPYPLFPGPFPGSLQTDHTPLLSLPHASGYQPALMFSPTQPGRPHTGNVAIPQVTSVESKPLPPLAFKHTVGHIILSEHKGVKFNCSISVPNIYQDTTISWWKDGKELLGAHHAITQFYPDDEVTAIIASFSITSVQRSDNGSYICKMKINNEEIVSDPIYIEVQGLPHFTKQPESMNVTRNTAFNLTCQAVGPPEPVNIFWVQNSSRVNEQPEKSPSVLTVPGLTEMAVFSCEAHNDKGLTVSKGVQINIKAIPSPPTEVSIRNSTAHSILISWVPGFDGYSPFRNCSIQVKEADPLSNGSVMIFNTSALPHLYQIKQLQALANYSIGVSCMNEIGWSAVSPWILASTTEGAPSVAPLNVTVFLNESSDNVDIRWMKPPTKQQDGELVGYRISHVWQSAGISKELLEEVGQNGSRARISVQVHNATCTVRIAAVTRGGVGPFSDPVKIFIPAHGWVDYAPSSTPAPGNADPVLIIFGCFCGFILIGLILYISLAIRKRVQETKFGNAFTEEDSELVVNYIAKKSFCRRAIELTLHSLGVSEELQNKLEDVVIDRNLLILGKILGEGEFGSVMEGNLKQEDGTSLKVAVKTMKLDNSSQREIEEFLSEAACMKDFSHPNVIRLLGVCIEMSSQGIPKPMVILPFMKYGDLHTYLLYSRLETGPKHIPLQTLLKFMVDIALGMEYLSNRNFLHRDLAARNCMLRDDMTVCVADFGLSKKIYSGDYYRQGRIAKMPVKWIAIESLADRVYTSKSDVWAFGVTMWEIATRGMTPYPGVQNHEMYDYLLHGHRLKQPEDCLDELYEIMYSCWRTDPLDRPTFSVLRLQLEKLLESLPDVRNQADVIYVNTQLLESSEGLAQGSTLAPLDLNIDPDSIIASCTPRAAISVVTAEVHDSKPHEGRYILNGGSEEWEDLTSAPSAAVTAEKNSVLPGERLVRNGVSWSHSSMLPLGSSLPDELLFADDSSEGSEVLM
Experimental: as §1, §2, §3

| SMILES | IC50 [1] [nM] | IC50 [2] [nM] | FLT3/Mer ratio (FLT3 IC50/Mer IC50) [2] |
| --- | --- | --- | --- |
| COCC(C)Nc1ncc2c(-c3cccc(C)n3)cc(C3CCC(O)CC3)n2n1 (stereo not drawn) [Compound 253] | ≤ 100 | ≤ 100 | +++ (“+++” represents a ratio of >100) |
| C[C@H](Nc1ncc2c(-c3ccc(CN4CCOCC4)cc3)cc([C@H]3CC[C@H](O)CC3)n2n1)[C@H]1CCCO1 [Compound 204] | 100 to 1000 | 100 to 1000 | ++ (“++” represents a ratio of between 10 and 100) |
| COC[C@H](C)Nc1ncc2c(-c3cnn(CC(=O)N4CCCC4)c3)cc([C@H]3CC[C@H](O)CC3)n2n1 [Compound 239] | ≤ 100 | ≤ 100 | +++ (“+++” represents a ratio of >100) |
| COC[C@H](C)Nc1ncc2c(-c3cnn(CC(C)(C)O)c3)cc([C@H]3CC[C@H](O)CC3)n2n1 [Compound 264] | ≤ 100 | ≤ 100 | +++ (“+++” represents a ratio of >100) |
| COC[C@H](C)Nc1ncc2c(-c3ccc(C)nc3)cc([C@H]3CC[C@H](O)CC3)n2n1 [Compound 246] | ≤ 100 | ≤ 100 | +++ (“+++” represents a ratio of >100) |
| COCC(C)Nc1ncc2c(-c3cnn(C4COC4)c3)cc(C3CCC(O)CC3)n2n1 (stereo not drawn) [Compound 221] | ≤ 100 | ≤ 100 | +++ (“+++” represents a ratio of >100) |
| COC[C@H](C)Nc1ncc2c(-c3cnn(CC4(C#N)CC4)c3)cc([C@H]3CC[C@H](O)CC3)n2n1 [Compound 266] | ≤ 100 | ≤ 100 | +++ (“+++” represents a ratio of >100) |
| COC[C@H](C)Nc1ncc2c(-c3cnnc(C)c3)cc([C@H]3CC[C@H](O)CC3)n2n1 [Compound 267] | ≤ 100 | ≤ 100 | +++ (“+++” represents a ratio of >100) |
| Cc1cc(-c2cc([C@H]3CC[C@H](O)CC3)n3nc(N[C@@H](C)CC(F)(F)F)ncc23)ccn1 [Compound 213] | ≤ 100 | ≤ 100 | +++ (“+++” represents a ratio of >100) |
| COC[C@H](C)Nc1ncc2c(-c3cccc(CN4CC[C@@H](F)C4)c3)cc([C@H]3CC[C@H](O)CC3)n2n1 [Compound 224] | ≤ 100 | ≤ 100 | +++ (“+++” represents a ratio of >100) |
| COC[C@H](C)Nc1ncc2c(-c3ccc(C(=O)N4CCS(=O)(=O)CC4)cc3)cc([C@H]3CC[C@H](O)CC3)n2n1 [Compound 197] | ≤ 100 | ≤ 100 | +++ (“+++” represents a ratio of >100) |
| COC[C@H](C)Nc1ncc2c(-c3ccc(CN4CCOCC4)nc3)cc([C@H]3CC[C@H](O)CC3)n2n1 [Compound 230] | ≤ 100 | ≤ 100 | +++ (“+++” represents a ratio of >100) |
| COC[C@H](C)Nc1ncc2c(-c3cncc(S(C)(=O)=O)c3)cc([C@H]3CC[C@H](O)CC3)n2n1 [Compound 194] | ≤ 100 | ≤ 100 | +++ (“+++” represents a ratio of >100) |
| COC[C@H](C)Nc1ncc2c(-c3cncc(C(=O)N4CCOCC4)c3)cc([C@H]3CC[C@H](O)CC3)n2n1 [Compound 233] | ≤ 100 | ≤ 100 | +++ (“+++” represents a ratio of >100) |
| CC(CCOC(F)F)Nc1ncc2c(-c3ccc(CN4CCOCC4)cc3)cc(C3CCC(O)CC3)n2n1 (stereo not drawn) [Compound 255] | ≤ 100 | ≤ 100 | ++ (“++” represents a ratio of between 10 and 100) |
| CCCCCC(C)Nc1ncc2c(C3=CCC(C(=O)N4CCOCC4)CC3)cc(C3CCC(O)CC3)n2n1 (mixture of isomers) [Compound 110] | ≤ 100 | ≤ 100 | ++ (“++” represents a ratio of between 10 and 100) |
| COCC[C@@H](C)Nc1ncc2c(-c3ccc(CN4CCOCC4)cc3)cc([C@H]3CC[C@H](O)CC3)n2n1 [Compound 212] | 100 to 1000 | ≤ 100 | ++ (“++” represents a ratio of between 10 and 100) |
| COC[C@H](C)Nc1ncc2c(-c3cccc(CN4CCOCC4)c3)cc([C@H]3CC[C@H](O)CC3)n2n1 [Compound 217] | ≤ 100 | ≤ 100 | +++ (“+++” represents a ratio of >100) |
| COC[C@H](C)Nc1ncc2c(-c3cccc(CN4CCC(F)(F)C4)c3)cc([C@H]3CC[C@H](O)CC3)n2n1 [Compound 223] | ≤ 100 | ≤ 100 | +++ (“+++” represents a ratio of >100) |
| COC[C@H](C)Nc1ncc2c(-c3cnn([C@H]4CCOC4)c3)cc([C@H]3CC[C@H](O)CC3)n2n1 [Compound 243] | ≤ 100 | ≤ 100 | +++ (“+++” represents a ratio of >100) |
| COC[C@H](C)Nc1ncc2c(-c3cnn(CC(=O)NC(C)C)c3)cc([C@H]3CC[C@H](O)CC3)n2n1 [Compound 235] | ≤ 100 | ≤ 100 | +++ (“+++” represents a ratio of >100) |
| C[C@@H](CC(F)(F)F)Nc1ncc2c(-c3ccc(CN4CCOCC4)cc3)cc([C@H]3CC[C@H](O)CC3)n2n1 [Compound 203] | ≤ 100 | ≤ 100 | ++ (“++” represents a ratio of between 10 and 100) |
| COC[C@H](C)Nc1ncc2c(-c3ccc4c(c3)NC(=O)C4)cc([C@H]3CC[C@H](O)CC3)n2n1 [Compound 249] | ≤ 100 | ≤ 100 | +++ (“+++” represents a ratio of >100) |
| COC[C@H](C)Nc1ncc2c(-c3ccc(N4CCN(C)CC4)nc3)cc([C@H]3CC[C@H](O)CC3)n2n1 [Compound 271] | ≤ 100 | ≤ 100 | ++ (“++” represents a ratio of between 10 and 100) |
